Several values for one entry are separate records, joined by “and”; a condition that tells them apart may be missing. Equal entries are not always repeated. Where two headings read alike, the source gives them in different places.
What was measured:
[1] = test system: glioma lines; details: in vitro; cited from earlier work
[2] = in vivo; cited from earlier work
[3] = test system: 9L; experiment: Intracranial local drug delivery by polymer implant in rat glioma model, median survival (Table 1 summary); details: in vivo
[4] = cited from earlier work
[5] = Intracranial local drug delivery by polymer implant in rat glioma model, P98 cells injected (Table 1 summary); type: in vivo; details: p(FAD:SA) 5% load
Description: Table 1 is a summary of studies on intracranial local drug delivery in rat glioma models, as described in the following examples.

[6] = test system: rat Walker 256 carcinosarcoma; details: in vitro; cited from earlier work
[7] = test system: F98, 9L, U87, U373, JH1 cell lines; experiment: In vitro efficacy of camptothecin on several cell lines (clonogenic assay); type: cell-based; details: 168 h; rat and established human cell lines, continuous exposure; read-out: LD90 after continuous exposure
Description: (§1) Tumor cell lines. […] The F98 glioma cells were provided by Dr. Joseph Goodman, Department of Neurosurgery, Ohio State University, Columbus, Ohio. The human glioma cell lines U87 and U373 were provided by Dr. O. Michael Colvin, Johns Hopkins University School of Medicine, Baltimore, Md. JH1 is a cell line established from a biopsy specimen from a patient with a pathologically confirmed glioblastoma multiform.
Cell culture of freshly biopsied gliomas. Biopsy samples were obtained from the operating room and transported in sterile specimen containers. Specimens were filtered through a 230 μm mesh collector screen (Bellco Glass, Inc., Vineland, N.J.) with use of a glass pestle. The specimen was then centrifuged at 1000 rpm for 10 minutes. The supernatant fraction was discarded and the cell pellet was resuspended in a 1 ml of minimum essential medium (Gibco BRL, Grand Island, N.Y.) with 10% fetal bovine serum, 0.5% L-glutamine, penicillin (base; 80.5 units/ml), and streptomycin (80.5 μg/ml). […] Sensitivity was assessed by the clonogenic assay below, beginning with the second passage.
Clonogenic assay. […] Colonies containing more than 50 cells were identified and counted. […] Survival was calculated as the number of colonies formed by the treated cells relative to the number of colonies formed by the untreated cells.

[8] = test system: U87; experiment: Clonogenic assay, camptothecin; type: cell-based, human
Description: as §1
(§2) Clonogenic assay. The sensitivity of each glioma cell line was tested in a clonogenic assay. At confluence, the cells were trypsinized and plated at 400 cells per 60 mm well. After 24 hours, fresh medium containing camptothecin at various concentrations was added. For brief exposure experiments, the camptothecin was removed and replaced with fresh medium after 1 hour; for continuous exposure, medium was left in place for 7 days. At 7 days, all plates were fixed and stained with coomassie brilliant blue (Bio Rad, Richmond, Calif.). Colonies containing more than 50 cells were identified and counted. Treatments were performed in triplicate. Survival was calculated as the number of colonies formed by the treated cells relative to the number of colonies formed by the untreated cells.

[9] = test system: JH1; experiment: Clonogenic assay, camptothecin; type: cell-based; details: Homo sapiens; for IC100: read-out: concentration for total cell kill
Description: as §1
Cell culture of freshly biopsied gliomas. Biopsy samples were obtained from the operating room and transported in sterile specimen containers. Specimens were filtered through a 230 μm mesh collector screen (Bellco Glass, Inc., Vineland, N.J.) with use of a glass pestle. The specimen was then centrifuged at 1000 rpm for 10 minutes. The supernatant fraction was discarded and the cell pellet was resuspended in a 1 ml of minimum essential medium (Gibco BRL, Grand Island, N.Y.) with 10% fetal bovine serum, 0.5% L-glutamine, penicillin (base; 80.5 units/ml), and streptomycin (80.5 μg/ml). The suspension was passed through a 25 gauge needle, after which it was recentrifuged at 1000 rpm for 5 minutes. The supernatant fraction was discarded and the pellet was resuspended in 5 ml of medium. This suspension was plated onto T75 culture flasks at various dilutions and incubated at 37° C. The medium was changed approximately every 3 days. When the initial culture reached confluence, the cells were trypsinized and passaged. Sensitivity was assessed by the clonogenic assay below, beginning with the second passage.
as §2

[10] = sodium salt formulation; cited from earlier work
[11] = test system: topoisomerase I; details: cited from earlier work
[12] = test system: melanoma and advanced gastrointestinal carcinoma; details: human, in vivo; cited from earlier work
[13] = test system: L1210; details: in vitro; cited from earlier work
[14] = test system: U373; experiment: Clonogenic assay, camptothecin; type: cell-based; details: Homo sapiens, U373 MG
Description: as §1, §2

[15] = test system: F98; experiment: Clonogenic assay, camptothecin; type: cell-based; details: Rattus norvegicus
Description: as §1, §2

[16] = test system: 9L; experiment: Clonogenic assay, camptothecin; type: cell-based; details: Rattus norvegicus
Description: as §1, §2

[17] = 1 h, read-out: LD90 1 Hour Exposure
[18] = 168 h, continuous exposure, 7 days, read-out: LD90 Continuous Exposure

In the case of `COc1cccc2c1C(=O)c1c(O)c3c(c(O)c1C2=O)C[C@@](O)(C(=O)CO)C[C@@H]3O[C@H]1C[C@H](N)[C@H](O)[C@H](C)O1` [Adriamycin], the sensitivity of gliomas [1] is given as “highly sensitive” and the cardiac toxicity [2] is given as “significant dose related cardiac toxicity”.

In the case of `O=NN(CCCl)C(=O)NCCCl` [BCNU, 1,3-bis(2-chloroethyl)-1-nitrosourea], the “% increase survival” value [3] is listed as 634% and 437%, the “Median survival in days, Rx group” value [3] is listed as 80 and 62.3 and the “radius from implant within which BCNU is detectable” value ([4]; 21 days after implantation) is listed as ≤ 3 mm. The “radius from implant within which BCNU is detectable” value ([4]; Day 7) was ≤ 40 mm, the concentration ([4]; PCPP-SA (20:80), initially, read-out: average concentration in brain) was 8000 µM and the “amount of brain exposed to BCNU” value ([4]; over time) was “decrease after three days”.

In the case of `N.N.O=C([O-])C1(C(=O)[O-])CCC1.[Pt+2]` [Carboplatin], the “% increase survival” value ([5]; Rx day 5) is reported as 225% and the “Median survival in days, Rx group” value ([5]; Rx day 5, 1 × 10^5 cells injected, controls 16, n = 18) is reported as 52 days.

For `CC[C@@]1(O)C(=O)OCc2c1cc1n(c2=O)Cc2cc3ccccc3nc2-1` [camptothecin, 4-ethyl-4-hydroxy-1H-pyrano[3',4':6,7]indolizino[1,2-b] quinoline-3,14(4H,12H)-dione], the cytotoxic anti-tumor activity [6] is given as “strong cytotoxic anti-tumor activity”, the IC90 [7] is given as ≤ 100 nM and the IC90 ([8]; 1 hour exposure, 60 min, read-out: LD90 1 Hour Exposure) is given as 1400 nM. For the same molecule, the IC90 ([8]; Homo sapiens, U-87 MG, 1 h, 1 hour exposure, read-out: LD90 1 Hour Exposure) was 1200 nM, the IC90 ([8]; Homo sapiens, U-87 MG, 168 h, continuous exposure, 7 days, read-out: LD90 Continuous Exposure) was 100 nM and the IC90 [9, 17] was 100 nM. The IC90 [9, 18] was 26 nM, the IC100 ([9]; 1-hour exposure) was 0.14 µM and the IC100 ([9]; continuous exposure) was 0.03 µM. For the same molecule, the protein binding [10] was “strongly protein-bound”, the “inhibition of topoisomerase I” value [11] was “irreversibly inhibiting” and the systemic toxicity [12] was “unexpectedly severe systemic toxicity”. For the same molecule, the tumoral responses [12] was “poor tumoral responses”, the cytotoxic anti-tumor activity [13] was “strong cytotoxic anti-tumor activity” and the IC90 [14, 17] was 300 nM. The IC90 [14, 18] was 26 nM, the IC90 ([15]; F98, 1 h, read-out: LD90 1 Hour Exposure) was 1400 nM and the IC90 ([15]; F98, 168 h, continuous exposure, 7 days, read-out: LD90 Continuous Exposure) was 100 nM. For the same molecule, the IC90 [16, 17] was 1400 nM and the IC90 [16, 18] was 100 nM.

With `CN(C)c1ccc(O)c2c1C[C@H]1C[C@H]3[C@H](N(C)C)C(O)=C(C(N)=O)C(=O)[C@@]3(O)C(O)=C1C2=O` [minocycline] the “% increase survival > no Rx” value [3] was 330% and the “% increase survival > ip BCNU” value ([3]; ip) was 93%.

— USRE37410E, “Controlled local delivery of chemotherapeutic agents for treating solid tumors” (priority 1999, dated 2001)
